Measurements taken from patent publication US10508120B2, “TYK2 inhibitors and uses thereof” (Nimbus Lakshmi, Inc., priority 2017, dated 2019).

Experiments:
[1] = molecular target: human TYK2 (JH2domain-pseudokinase) (Homo sapiens (Human), UniProt P29597); assay: TYK2 JH2 Domain Binding Assay (KINOMEscan)
Method in brief: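 The construct was human TYK2 G556–D888 fused to the NFkB DNA-binding domain and expressed in HEK293 cells; unpurified extract was incubated with compound and liganded beads for 1 hour at room temperature.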

Tyk2 kinase domain (DH1) = Tyk2 kinase domain (DH1) (Homo sapiens (Human), UniProt P29597); assay: Tyk2 Radioactive Kinase Assay; assay type: biochemical; settings: compound at 10 μM, ATP 10 μM; for inhibition at 10 µM: read-out: Tyk2 JH1% Inhibition @ 10 μM
Sequence of Tyk2 kinase domain (DH1) (P29597 897-1176): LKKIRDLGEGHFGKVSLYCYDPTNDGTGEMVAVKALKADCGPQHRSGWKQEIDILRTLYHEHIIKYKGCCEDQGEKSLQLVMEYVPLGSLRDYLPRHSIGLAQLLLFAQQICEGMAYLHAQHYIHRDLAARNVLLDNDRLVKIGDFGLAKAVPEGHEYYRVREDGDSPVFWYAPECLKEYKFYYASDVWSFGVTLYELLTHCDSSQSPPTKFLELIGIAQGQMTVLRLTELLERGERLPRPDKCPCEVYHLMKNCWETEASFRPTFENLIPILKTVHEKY
Method in brief: (§1)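 Read-out is percent inhibition from a radioactive kinase reaction, measured with compound at 10 μM.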

JAK2 kinase domain (JH1) = JAK2 kinase domain (JH1) (Homo sapiens (Human), UniProt O60674); assay: JAK2 Radioactive Kinase Assay; assay type: biochemical; settings: compound at 10 μM, ATP 10 μM; for inhibition at 10 µM: read-out: JAK2 JH1% Inhibition @ 10 μM
Sequence of JAK2 kinase domain (JH1) (O60674 849-1124): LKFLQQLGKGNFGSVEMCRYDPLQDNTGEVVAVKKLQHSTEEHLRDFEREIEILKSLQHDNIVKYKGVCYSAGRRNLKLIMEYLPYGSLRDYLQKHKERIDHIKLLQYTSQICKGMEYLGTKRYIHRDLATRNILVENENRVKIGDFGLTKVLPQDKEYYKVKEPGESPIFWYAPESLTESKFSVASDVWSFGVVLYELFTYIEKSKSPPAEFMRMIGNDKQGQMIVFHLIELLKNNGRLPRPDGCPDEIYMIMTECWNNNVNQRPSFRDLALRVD
Method in brief: as §1

Sequence of human TYK2 (JH2domain-pseudokinase) (P29597 556-888): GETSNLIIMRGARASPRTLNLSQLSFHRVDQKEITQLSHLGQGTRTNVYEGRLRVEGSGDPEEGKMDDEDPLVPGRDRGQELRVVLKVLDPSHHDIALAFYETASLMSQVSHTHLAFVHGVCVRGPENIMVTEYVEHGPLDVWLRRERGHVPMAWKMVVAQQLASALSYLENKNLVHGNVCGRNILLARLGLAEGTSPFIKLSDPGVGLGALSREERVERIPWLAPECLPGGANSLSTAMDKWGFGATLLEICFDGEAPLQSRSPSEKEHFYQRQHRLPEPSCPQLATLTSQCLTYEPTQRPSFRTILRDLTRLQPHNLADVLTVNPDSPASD

| SMILES | Kd [1] [nM] | Tyk2 JH1% Inhibition @ 10 μM (Tyk2 kinase domain (DH1)) | JAK2 JH1% Inhibition @ 10 μM (JAK2 kinase domain (JH1)) | inhibition at 10 µM (Tyk2 kinase domain (DH1)) [%] | inhibition at 10 µM (JAK2 kinase domain (JH1)) [%] |
| --- | --- | --- | --- | --- | --- |
| CNc1cc(Nc2cccn(C3CCOCC3)c2=O)nc2c(C(=O)N[C@H]3CC[C@H]3O)cnn12 [I-557] | 0.2 to 1 | A (percent inhibition at 10 μM lower than 50) | A (percent inhibition at 10 μM lower than 50) |  |  |
| CNc1cc(Nc2cc(F)cn([C@@H]3CCCOC3)c2=O)nc2c(C(=O)N[C@H]3C[C@H]3F)cnn12 [I-558] | < 0.2 |  |  | < 50 | < 50 |
| CNc1cc(Nc2cccn([C@H]3CC[C@H](OC)CC3)c2=O)nc2c(C(=O)N[C@H]3CC[C@H]3O)cnn12 [I-561] | 0.2 to 1 | A (percent inhibition at 10 μM lower than 50) | A (percent inhibition at 10 μM lower than 50) |  |  |
| CNc1cc(Nc2cccc([C@H]3CCCCO3)n2)nc2c(C(=O)NCC3(CO)CC3)cnn12 [I-564] | < 0.2 |  |  | < 50 | < 50 |
| CNc1cc(Nc2cccc([C@@H]3CCCCO3)n2)nc2c(C(=O)NCC3(CO)CC3)cnn12 [I-565] | < 0.2 |  |  | < 50 | < 50 |
| CNc1cc(Nc2cccn([C@@H]3CCOC[C@@H]3OC)c2=O)nc2c(C(=O)NC3CC3)cnn12 [I-567] | 1 to 10 |  |  | < 50 | < 50 |
| CNc1cc(Nc2cccn([C@@H]3CCC[C@H](OC)C3)c2=O)nc2c(C(=O)NC3CC3)cnn12 [I-568] | < 0.2 |  |  | < 50 | < 50 |
| CNc1cc(Nc2cccn(C3CCN(CCF)CC3)c2=O)nc2c(C(=O)NC3CC3)cnn12 [I-569, N-cyclopropyl-5-((1-(1-(2-fluoroethyl)piperidin-4-yl)-2-oxo-1,2-dihydropyridin-3-yl)amino)-7-(methylamino)pyrazolo[1,5-a]pyrimidine-3-carboxamide] | < 0.2 |  |  | < 50 | < 50 |
| CNc1cc(Nc2cccn(C3CCCOC3)c2=O)nc2c(C(=O)NCC(C)(C)CO)cnn12 (stereo not drawn) [I-571] | < 0.2 |  |  | < 50 | < 50 |
| CNc1cc(-n2cc(N3CCN(C)CC3)c3ncccc32)nc2c(C(=O)NC3CC3)cnn12 [I-574] | 1 to 10 |  |  | < 50 | < 50 |
| CNc1cc(-n2cc(N3CCN(C)CC3)c3ncccc32)nc2c(C(=O)N[C@H]3C[C@H]3F)cnn12 [I-575] | 1 to 10 |  |  | < 50 | < 50 |
| CNc1cc(Nc2cccn(CCOC3CC3)c2=O)nc2c(C(=O)NC3CC4(COC4)C3)cnn12 [I-576, 5-((1-(2-cyclopropoxyethyl)-2-oxo-1,2-dihydropyridin-3-yl)amino)-7-(methylamino)-N-(2-oxaspiro[3.3]heptan-6-yl)pyrazolo[1,5-a]pyrimidine-3-carboxamide] | 1 to 10 |  |  | < 50 | < 50 |
| CNc1cc(Nc2cccn(CCOC3CC3)c2=O)nc2c(C(=O)NCC3(CO)CC3)cnn12 [I-577, 5-((1-(2-cyclopropoxyethyl)-2-oxo-1,2-dihydropyridin-3-yl)amino)-N-((1-(hydroxymethyl)cyclopropyl)methyl)-7-(methylamino)pyrazolo[1,5-a]pyrimidine-3-carboxamide] | 0.2 to 1 |  |  | < 50 | < 50 |
| CNc1cc(Nc2cccc([C@H]3CCCOC3)n2)nc2c(C(=O)NCC(C)(C)CO)cnn12 [I-579] | < 0.2 |  |  | < 50 | < 50 |
| CNc1cc(Nc2cccc([C@@H]3CCCOC3)n2)nc2c(C(=O)NCC(C)(C)CO)cnn12 [I-580] | < 0.2 |  |  | < 50 | < 50 |
| CNc1cc(Nc2c(F)ccn(-c3nccs3)c2=O)nc2c(C(=O)NC3CC3)cnn12 [I-581] | 1 to 10 |  |  | < 50 | < 50 |
| CNc1cc(-c2cn(CCN3CCOCC3)c3ncccc23)nc2c(C(=O)NC3CC3)cnn12 [I-582] | < 0.2 |  |  | < 50 | < 50 |
| CNc1cc(-c2cn(CCN3CCOCC3)c3ncccc23)nc2c(C(=O)N[C@H]3C[C@H]3F)cnn12 [I-583] | < 0.2 |  |  | < 50 | < 50 |
| CNc1cc(-c2cn(CCN3CCCCC3)c3ncccc23)nc2c(C(=O)NC3CC3)cnn12 [I-584, N-cyclopropyl-7-(methylamino)-5-(1-(2-(piperidin-1-yl)ethyl)-1H-pyrrolo[2,3-b]pyridin-3-yl)pyrazolo[1,5-a]pyrimidine-3-carboxamide] | < 0.2 |  |  | < 50 | < 50 |
| CNc1cc(-c2cn(C(C)C)c3ncccc23)nc2c(C(=O)NCC3(CO)CC3)cnn12 [I-587] | 0.2 to 1 |  |  | < 50 | < 50 |
| CNc1cc(-c2cn(C(C)C)c3ncccc23)nc2c(C(=O)NCC(C)(C)CO)cnn12 [I-588, N-(3-hydroxy-2,2-dimethylpropyl)-5-(1-isopropyl-1H-pyrrolo[2,3-b]pyridin-3-yl)-7-(methylamino)pyrazolo[1,5-a]pyrimidine-3-carboxamide] | 0.2 to 1 |  |  | < 50 | < 50 |
| CNc1cc(Nc2cccc(N3CCOCC3)n2)nc2c(C(=O)NC3CC3)cnn12 [I-589] | < 0.2 |  |  | < 50 | < 50 |
